Assay results reported in US8258151B2, “3-aminoimidazo [1,2-A] pyridine derivatives as SGLT inhibitors” (Merck Patent GmbH, priority 2006, dated 2012).

Columns and labels:
SGLT2 = molecular target: T1, SGLT2 (Homo sapiens, UniProt P31639); test: SGLT2 activity measurement: 14C-AMG uptake in BHK cells transfected with SGLT2; type: cell-based; conditions: AMG 2 mM, 37° C., 90 min
T1 construct: expressed in transfected cells
T1 sequence (P31639 1-672): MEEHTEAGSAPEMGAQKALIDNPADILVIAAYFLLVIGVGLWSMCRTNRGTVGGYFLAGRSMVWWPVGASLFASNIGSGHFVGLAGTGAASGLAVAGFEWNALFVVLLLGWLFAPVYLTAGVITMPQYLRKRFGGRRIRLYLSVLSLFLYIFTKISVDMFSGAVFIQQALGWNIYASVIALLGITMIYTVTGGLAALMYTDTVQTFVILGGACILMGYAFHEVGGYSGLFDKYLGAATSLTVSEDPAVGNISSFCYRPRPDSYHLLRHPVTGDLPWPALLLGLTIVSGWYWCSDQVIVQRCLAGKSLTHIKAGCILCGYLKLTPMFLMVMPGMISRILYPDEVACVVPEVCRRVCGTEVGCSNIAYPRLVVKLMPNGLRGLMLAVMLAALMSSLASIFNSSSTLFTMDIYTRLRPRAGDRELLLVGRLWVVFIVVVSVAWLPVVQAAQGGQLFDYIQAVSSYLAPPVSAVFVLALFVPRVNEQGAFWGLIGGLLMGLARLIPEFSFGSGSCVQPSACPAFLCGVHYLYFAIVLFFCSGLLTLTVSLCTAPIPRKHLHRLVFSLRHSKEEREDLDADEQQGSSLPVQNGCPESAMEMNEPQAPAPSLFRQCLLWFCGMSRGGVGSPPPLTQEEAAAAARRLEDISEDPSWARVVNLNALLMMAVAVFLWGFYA
In short: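 BHK21 cells stably expressing human SGLT2 took up 14C-AMG (added as 2 mM solution) ± compound for 90 min at 37 °C in Na+-containing HEPES/Tris buffer, pH 7.4. Uptake was measured by scintillation counting after lysis. Non-specific uptake was defined in sodium-free sucrose buffer.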

SGLT1 = molecular target: T2, SGLT1 (Homo sapiens, UniProt P13866); test: SGLT1 activity measurement: 14C-AMG uptake in BHK cells transfected with SGLT1; type: cell-based; conditions: AMG 50 μM, 37° C., 90 min
T2 construct: expressed in transfected cells
T2 sequence (P13866 1-664): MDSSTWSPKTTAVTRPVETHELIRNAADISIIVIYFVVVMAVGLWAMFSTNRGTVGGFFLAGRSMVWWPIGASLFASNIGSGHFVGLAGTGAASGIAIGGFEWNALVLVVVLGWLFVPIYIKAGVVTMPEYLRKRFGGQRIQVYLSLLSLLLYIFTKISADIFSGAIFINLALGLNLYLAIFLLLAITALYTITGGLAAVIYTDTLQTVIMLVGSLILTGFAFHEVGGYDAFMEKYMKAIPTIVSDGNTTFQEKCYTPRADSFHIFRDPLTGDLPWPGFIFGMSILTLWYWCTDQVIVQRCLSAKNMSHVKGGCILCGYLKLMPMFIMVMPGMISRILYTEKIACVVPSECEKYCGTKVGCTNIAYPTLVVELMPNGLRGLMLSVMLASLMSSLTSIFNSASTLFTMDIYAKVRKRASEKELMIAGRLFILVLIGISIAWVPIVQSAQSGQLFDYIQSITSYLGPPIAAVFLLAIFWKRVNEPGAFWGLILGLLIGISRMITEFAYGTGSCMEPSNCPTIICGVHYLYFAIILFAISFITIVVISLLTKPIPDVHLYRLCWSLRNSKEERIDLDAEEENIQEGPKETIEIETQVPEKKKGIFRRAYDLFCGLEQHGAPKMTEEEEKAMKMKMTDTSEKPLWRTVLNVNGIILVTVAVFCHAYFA
In short: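 BHK21 cells stably transfected with human SLC5A1 were incubated with 14C-AMG (added solution at 50 μM) ± compound for 90 min at 37 °C. The buffer was 140 mM NaCl, HEPES/Tris, pH 7.4. Lysed-cell radioactivity was counted by scintillation, and non-specific uptake was measured in sodium-free sucrose buffer.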

IC50 (SGLT2) [µM] | IC50 (SGLT1) [µM] | Structure (SMILES)
0.01 to 1 | > 10 | COc1cc(OC)c(-c2nc3ccc(F)cn3c2Nc2c(C)cc(F)cc2C)c(OCC(N)=O)c1 [Compound A200, 2-[2-(Aminocarbonylmethoxy)-4-methoxy-6-methoxyphenyl]-3-(2,6-dimethyl-4-fluorophenyl-amino)-6-fluoroimidazo[1,2-a]pyridine]
0.01 to 1 | > 10 | COCCOc1cc(C)c(-c2nc3ccc(F)cn3c2Nc2c(C)cccc2C)c(OCC(N)=O)c1 [Compound A184, 2-[2-(Aminocarbonylmethoxy)-4-(2-methoxy-ethoxy)-6-methylphenyl]-3-(2,6-dimethylphenyl-amino)-6-fluoroimidazo[1,2-a]pyridine]
0.01 to 1 | 1 to 10 | COc1ccc(-c2nc3ccccn3c2Nc2c(C)cccc2Cl)c(OCC(N)=O)c1 [Compound A15, 2-[2-(Aminocarbonylmethoxy)-4-methoxy-phenyl]-3-(2-chloro-6-methylphenylamino)-imidazo[1,2-a]pyridine]
0.01 to 1 | 1 to 10 | COc1cc(C)c(-c2nc3ccc(F)cn3c2Nc2c(C)cc(Cl)cc2C)c(OCC(N)=O)c1 [Compound A222, 2-[2-(Aminocarbonylmethoxy)-4-methoxy-6-methylphenyl]-3-(4-chloro-2,6-dimethylphenyl-amino)-6-fluoroimidazo[1,2-a]pyridine]
0.01 to 1 | 1 to 10 | COc1cc(C)c(-c2nc3c(F)cc(F)cn3c2Nc2c(Cl)cc(F)cc2Cl)c(OCC(N)=O)c1 [Compound A225, 2-[2-(Aminocarbonylmethoxy)-4-methoxy-6-methylphenyl]-3-(4-fluoro-2,6-dichlorophenyl-amino)-6,8-difluoroimidazo[1,2-a]pyridine]
0.01 to 1 | 1 to 10 | COc1cc(C)c(-c2nc3ccc(F)cn3c2Nc2c(C)cc(F)cc2C)c(OCC(N)=O)c1 [Compound A234, 2-[2-(Aminocarbonylmethoxy)-4-methoxy-6-methylphenyl]-3-(2,6-dimethyl-4-fluorophenyl-amino)-6-fluoroimidazo[1,2-a]pyridine]
0.01 to 1 | > 10 | COc1cc(C)c(-c2nc3ccc(F)cn3c2Nc2c(C)cc([N+](=O)[O-])cc2C)c(OCC(N)=O)c1 [Compound A254, 2-[2-(Aminocarbonylmethoxy)-4-methoxy-6-methylphenyl]-3-(2,6-dimethyl-4-nitrophenyl-amino)-6-fluoroimidazo[1,2-a]pyridine]
0.01 to 1 | > 10 | Cc1cccc(C)c1Nc1c(-c2c(C)cc(O)cc2OCC(N)=O)nc2ccccn12 [Compound A171, 2-[2-(Aminocarbonylmethoxy)-4-hydroxy-6-methylphenyl]-3-(2,6-dimethylphenylamino)-imidazo[1,2-a]pyridine]
0.01 to 1 | 1 to 10 | Cc1cccc(C)c1Nc1c(-c2c(Cl)cccc2OCC(N)=O)nc2ccc(F)cn12 [Compound A3, 2-[2-(aminocarbonylmethoxy)-6-chlorophenyl]-3-(2,6-dimethylphenylamino)-6-fluoroimidazo[1,2-a]pyridine]
0.01 to 1 | > 10 | COc1cc(C)c(-c2nc3ccc(F)cn3c2Nc2c(C)cc(C)cc2[N+](=O)[O-])c(OCC(N)=O)c1 [Compound A250, 2-[2-(Aminocarbonylmethoxy)-4-methoxy-6-methylphenyl]-3-(2,4-dimethyl-6-nitrophenyl-amino)-6-fluoroimidazo[1,2-a]pyridine]
0.01 to 1 | 1 to 10 | COc1cc(C)c(-c2nc3ccccn3c2Nc2c(Cl)cc(F)cc2Cl)c(OCC(N)=O)c1 [Compound A224, 2-[2-(Aminocarbonylmethoxy)-4-methoxy-6-methylphenyl]-3-(4-fluoro-2,6-dichlorophenyl-amino)imidazo[1,2-a]pyridine]
0.01 to 1 | 1 to 10 | CCc1cc(OC)cc(OCC(N)=O)c1-c1nc2c(F)cc(F)cn2c1Nc1c(C)cc(F)cc1C [Compound A255, 2-[2-(Aminocarbonylmethoxy)-4-methoxy-6-ethylphenyl]-3-(2,6-dimethyl-4-fluorophenyl-amino)-6,8-difluoroimidazo[1,2-a]pyridine]
1 to 10 | > 10 | Cc1cccc(C)c1Nc1c(-c2ccccc2OCC(N)=O)nc2c(C)cccn12 [Compound A8, 2-[2-(Aminocarbonylmethoxy)phenyl]-3-(2,6-di-methylphenylamino)-8-methylimidazo[1,2-a]-pyridine]
0.01 to 1 | 1 to 10 | CCc1cc(OC)cc(OCC(N)=O)c1-c1nc2ccc(F)cn2c1Nc1c(C)ccc(Cl)c1C [Compound A217, 2-[2-(Aminocarbonylmethoxy)-4-methoxy-6-ethylphenyl]-3-(3-chloro-2,6-dimethylphenyl-amino)-6-fluoroimidazo[1,2-a]pyridine]
0.01 to 1 | > 10 | COc1ccc(-c2nc3ccccn3c2Nc2c(C)cccc2C)c(OCC(N)=O)c1 [Compound A14, 2-[2-(Aminocarbonylmethoxy)-4-methoxy-phenyl]-3-(2,6-dimethylphenylamino)imidazo-[1,2-a]pyridine]
0.01 to 1 | > 10 | CCc1cc(OCC(O)CO)cc(OCC(N)=O)c1-c1nc2ccc(F)cn2c1Nc1c(C)cccc1C (stereo not shown) [Compound A216, 2-[2-(Aminocarbonylmethoxy)-4-(2,3-dihydroxy-propoxy)-6-ethylphenyl]-3-(2,6-dimethylphenyl-amino)-6-fluoroimidazo[1,2-a]pyridine]
0.01 to 1 | > 10 | COc1ccc(-c2nc3ccc(F)cn3c2Nc2c(C)cccc2C)c(OCC(N)=O)c1 [Compound A211, 2-[2-(Aminocarbonylmethoxy)-4-methoxy-phenyl]-3-(2,6-dimethylphenylamino)-6-fluoro-imidazo[1,2-a]pyridine]
0.01 to 1 | > 10 | Cc1cccc(C)c1Nc1c(-c2c(C)cc(OCCO)cc2OCC(N)=O)nc2ccc(F)cn12 [Compound A186, 2-[2-(Aminocarbonylmethoxy)-4-(2-hydroxy-ethoxy)-6-methylphenyl]-3-(2,6-dimethylphenyl-amino)-6-fluoroimidazo[1,2-a]pyridine]
0.01 to 1 | 1 to 10 | COc1cc(C)c(-c2nc3c(F)cc(F)cn3c2Nc2c(C)cc(F)cc2C)c(OCC(N)=O)c1 [Compound A251, 2-[2-(Aminocarbonylmethoxy)-4-methoxy-6-methylphenyl]-3-(2,6-dimethyl-4-fluorophenyl-amino)-6,8-difluoroimidazo[1,2-a]pyridine]
0.01 to 1 | 1 to 10 | COc1ccc(-c2nc3ccccn3c2Nc2c(Cl)cccc2Cl)c(OCC(N)=O)c1 [Compound A16, 2-[2-(Aminocarbonylmethoxy)-4-methoxy-phenyl]-3-(2,6-dichlorophenylamino)imidazo-[1,2-a]pyridine]
0.01 to 1 | 1 to 10 | COc1cc(C)c(-c2nc3ccc(F)cn3c2Nc2c(C)cccc2C)c(OCC(N)=O)c1 [Compound A204, 2-[2-(Aminocarbonylmethoxy)-4-methoxy-6-methylphenyl]-3-(2,6-dimethylphenylamino)-6-fluoroimidazo[1,2-a]pyridine]
0.01 to 1 | > 10 | CCc1cc(OC)cc(OCC(N)=O)c1-c1nc2ccc(F)cn2c1Nc1c(C)cccc1OC [Compound A215, 2-[2-(Aminocarbonylmethoxy)-4-methoxy-6-ethylphenyl]-3-(2-methoxy-6-methylphenyl-amino)-6-fluoroimidazo[1,2-a]pyridine]
0.01 to 1 | 1 to 10 | COc1cc(C)c(-c2nc3ccc(F)cn3c2Nc2c(F)cccc2Br)c(OCC(N)=O)c1 [Compound A243, 2-[2-(Aminocarbonylmethoxy)-4-methoxy-6-methylphenyl]-3-(2-fluoro-6-bromophenylamino)-6-fluoroimidazo[1,2-a]pyridine]
